Measurements: ChEMBL document CHEMBL5126580, “Design, synthesis and biological evaluation of 2-pyrrolone derivatives as radioprotectors” (Bioorg Med Chem, 2022)
Calls of active or inactive are those of the source. The rule behind the calls is not given here.

What was measured:
[1] = tested on: MOLT-4; experiment: Cytotoxicity against human MOLT-4 cells assessed as reduction in cell viability measured after 1 hr by erythrosin B staining based dye exclusion assay; format: toxicity; settings: molt-4, 1 h
[2] = target: Cellular tumor antigen p53 (Homo sapiens) (UniProt P04637); experiment: Inhibition of p53 in human MOLT-4 cells assessed as suppression of gamma-irradiation-induced decrease in cell viability at 20 to 100 uM preincubated for 1 hr followed by 10 Gy 137Cs gamma-ray exposure and measured after 27 hrs by erythrosin B staining based dye exclusion assay; settings: dose 20-100 µM, time 28.0 hrs
[3] = tested on: MOLT-4; experiment: Cytotoxicity against human MOLT-4 cells assessed as reduction in cell viability at 80 uM measured after 1 hr by erythrosin B staining based dye exclusion assay; format: toxicity; settings: molt-4, 1 h
[4] = tested on: MOLT-4; experiment: Radioprotective activity in gamma-irradiated human MOLT-4 cells assessed as reduction in p53 expression at 3 to 100 uM preincubated for 1 hr followed by 10 Gy 137Cs gamma-ray exposure and measured after 6 hrs by Western blot analysis; format: functional, cell-based; settings: dose 3-100 µM, time 7.0 hrs
[5] = target: Cellular tumor antigen p53 (Homo sapiens) (UniProt P04637); experiment: Inhibition of p53 in human MOLT-4 cells assessed as suppression of gamma-irradiation-induced decrease in cell viability at 20 uM preincubated for 1 hr followed by 10 Gy 137Cs gamma-ray exposure and measured after 27 hrs by erythrosin B staining based dye exclusion assay; settings: time 28.0 hrs
[6] = target: Cellular tumor antigen p53 (Homo sapiens) (UniProt P04637); experiment: Inhibition of p53 in human MOLT-4 cells assessed as suppression of gamma-irradiation-induced decrease in cell viability at 50 to 100 uM preincubated for 1 hr followed by 10 Gy 137Cs gamma-ray exposure and measured after 27 hrs by erythrosin B staining based dye exclusion assay; settings: dose 50-100 µM, time 28.0 hrs
[7] = tested on: MOLT-4; experiment: Cytotoxicity against human MOLT-4 cells assessed as reduction in cell viability at 10 to 20 uM measured after 1 hr by erythrosin B staining based dye exclusion assay; format: toxicity; settings: molt-4, 1 h, dose 10-20 µM
[8] = target: Cellular tumor antigen p53 (Homo sapiens) (UniProt P04637); experiment: Inhibition of p53 in human MOLT-4 cells assessed as suppression of gamma-irradiation-induced decrease in cell viability at 40 uM preincubated for 1 hr followed by 10 Gy 137Cs gamma-ray exposure and measured after 27 hrs by erythrosin B staining based dye exclusion assay; settings: time 28.0 hrs
[9] = tested on: MOLT-4; experiment: Cytotoxicity against human MOLT-4 cells assessed as reduction in cell viability at 40 uM measured after 1 hr by erythrosin B staining based dye exclusion assay; format: toxicity; settings: molt-4, 1 h

Cellular tumor antigen p53 (Homo sapiens), sequence (P04637 whole entry, looked up): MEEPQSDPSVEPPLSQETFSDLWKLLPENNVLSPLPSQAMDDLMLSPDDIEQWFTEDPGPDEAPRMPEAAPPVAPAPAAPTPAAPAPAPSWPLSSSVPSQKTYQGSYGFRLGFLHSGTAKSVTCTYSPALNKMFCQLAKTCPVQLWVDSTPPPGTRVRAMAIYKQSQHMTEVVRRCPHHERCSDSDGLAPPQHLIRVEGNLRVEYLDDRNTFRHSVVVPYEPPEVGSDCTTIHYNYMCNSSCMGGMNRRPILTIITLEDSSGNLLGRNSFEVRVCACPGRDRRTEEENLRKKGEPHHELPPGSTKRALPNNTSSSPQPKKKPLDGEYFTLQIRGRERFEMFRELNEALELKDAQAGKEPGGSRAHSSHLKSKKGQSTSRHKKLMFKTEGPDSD

SMILES | Activity [1] | inhibition [2] | further results
COC(=O)C1=C(C)N(c2cccc(OC)c2)C(=O)/C1=C\c1ccc(S(N)(=O)=O)cc1 | Toxic | – | –
CCCCCCOC(=O)C1=C(C)N(c2cccc(OC)c2)C(=O)/C1=C\c1ccc(C(=O)O)cc1 | Toxic | – | –
COC(=O)C1=C(C)N(c2cccc(OC)c2)C(=O)/C1=C\c1ccccc1S(=O)(=O)[O-].[Na+] | Non-Toxic | – | –
CCOC(=O)c1ccc(/C=C2\C(=O)N(c3cccc(OC)c3)C(C)=C2C(=O)OC)cc1 | Toxic | – | –
COC(=O)C1=C(C)N(c2ccccc2OC)C(=O)/C1=C\c1ccc(C(=O)O)cc1 | – | Active | –
COC(=O)C1=C(C)N(c2cccc(OC)c2)C(=O)/C1=C\c1cccc(C(=O)O)c1 | – | Active | –
COC(=O)C1=C(C)N(c2cccc(OC)c2)C(=O)/C1=C/c1ccc(C(=O)O)cc1 | – | Active | –
COC(=O)C1=C(C)N(c2cccc(OC)c2)C(=O)/C1=C\c1ccc(Cl)cc1 | Toxic | – | –
COC(=O)C1=C(C)N(c2ccc(OC)cc2)C(=O)/C1=C\c1ccc(C(=O)O)cc1 | – | Active | –
COC(=O)C1=C(C)N(c2cccc(OC(C)C)c2)C(=O)/C1=C\c1ccc(C(=O)O)cc1 | – | – | Activity [3]: Toxic; Activity [4]: Active; inhibition [5]: Active
COC(=O)C1=C(C)N(c2cccc(OC)c2)C(=O)/C1=C\c1ccc(-c2nnn[nH]2)cc1 | – | Active | Activity [4]: Active
CNC(=O)C1=C(C)N(c2cccc(OC)c2)C(=O)/C1=C\c1ccc(C(=O)O)cc1 | – | – | inhibition [6]: Active
COc1cccc(N2C(=O)/C(=C\c3ccc(C(=O)O)cc3)C(C(=O)OC(C)(C)C)=C2C)c1 | Toxic | – | –
CCCCCCOc1cccc(N2C(=O)/C(=C\c3ccc(C(=O)O)cc3)C(C(=O)OC)=C2C)c1 | Toxic | – | –
COC(=O)C1=C(C)N(c2cccc(OC)c2)C(=O)/C1=C\c1ccncc1O | Toxic | – | –
COC(=O)C1=C(C)N(c2cccc(OC)c2)C(=O)/C1=C\c1ccncc1 | Toxic | – | –
COC(=O)C1=C(C)N(c2cccc(OC)c2)C(=O)C1=Cc1ccc(C(=O)O)cc1 | – | Active | –
COC(=O)C1=C(C)N(c2cccc(OC)c2)C(=O)/C1=C\c1ccc([N+](=O)[O-])cc1 | Toxic | – | –
COC(=O)C1=C(C)N(c2cccc(OC)c2)C(=O)/C1=C\c1cncnc1 | Toxic | – | –
COC(=O)C1=C(C)N(c2cccc(OC)c2)C(=O)/C1=C\c1ccc(C(=O)O)cc1 | – | – | Activity [3]: Toxic; Activity [4]: Active; inhibition [5]: Active
CCOC(=O)C1=C(C)N(c2cccc(OC)c2)C(=O)/C1=C\c1ccc(C(=O)O)cc1 | – | Active | –
COC(=O)C1=C(C)N(c2ccccc2)C(=O)/C1=C\c1ccc(C(=O)O)cc1 | – | Active | –
COC(=O)C1=C(C)N(c2cccc(OC)c2)C(=O)/C1=C\c1ccc(C(=O)NO)cc1 | – | – | Activity [7]: Toxic; inhibition [8]: Active; Activity [9]: Non-Toxic
COC(=O)C1=C(C)N(c2cccc(OC)c2)C(=O)/C1=C\c1ccc(OC)cc1 | Toxic | – | –
COC(=O)C1=C(C)N(c2cccc(O)c2)C(=O)/C1=C\c1ccc(C(=O)O)cc1 | – | – | inhibition [6]: Active
